According to ChEMBL document CHEMBL1201862, “PubChem BioAssay data set” (2004):
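Five compound concentrations were applied to cells in 96-well plates for 48 hours; endpoints were derived by simple linear interpolation of the resulting dose-response curve. Here, GI50 denotes the concentration required for 50% inhibition of growth.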 Activity calls are given as the source filed them. Rule as the data show it: active = GI50 up to about 1.1 µM and inactive = higher.

Columns and labels:
Experiment in all cases: inhibition of tumour cell growth, NCI panel, 48 h
[1] = system: 786-0
[2] = system: A498
[3] = system: A549
[4] = system: ACHN
[5] = system: CAKI-1
[6] = system: CCRF-CEM
[7] = system: COLO 205
[8] = system: DLD-1
[9] = system: DMS-114
[10] = system: DMS-273
[11] = system: EKVX
[12] = system: HCC 2998
[13] = system: HCT-116
[14] = system: HCT-15
[15] = system: HL-60
[16] = system: HOP-18
[17] = system: HOP-62
[18] = system: HOP-92
[19] = system: HT-29
[20] = system: IGROV-1
[21] = system: K562
[22] = system: KM-20L2
[23] = system: KM12
[24] = system: LOX IMVI
[25] = system: LXFL 529
[26] = system: M14
[27] = system: M19-MEL
[28] = system: MOLT-4
[29] = system: Malme-3M
[30] = system: NCI-H226
[31] = system: NCI-H23
[32] = system: NCI-H460
[33] = system: NCI-H522
[34] = system: OVCAR-3
[35] = system: OVCAR-4
[36] = system: OVCAR-5
[37] = system: OVCAR-8
[38] = system: RPMI-8226
[39] = system: RXF 393
[40] = system: SF-268
[41] = system: SF-295
[42] = system: SF-539
[43] = system: SK-MEL-28
[44] = system: SK-MEL-2
[45] = system: SK-MEL-5
[46] = system: SK-OV-3
[47] = system: SN12C
[48] = system: SNB-19
[49] = system: SNB-75
[50] = system: SNB-78
[51] = system: SR
[52] = system: SW-620
[53] = system: TK-10
[54] = system: U-251
[55] = system: UACC-257
[56] = system: UACC-62
[57] = system: UO-31
[58] = system: XF498

**Q.** For N#CC1CC(c2ccccc2)Nc2cc(Cl)ccc2N1 (stereo not given), which GI50 [1] is on record?
**A.** Its GI50 is 24.1 µM (inactive).

**Q.** And the GI50 [2]?
**A.** The GI50 was > 100 µM (inactive).

**Q.** And the GI50 [3]?
**A.** The GI50 was 37.6 µM (inactive).

**Q.** What about the GI50 [4] of the same compound?
**A.** The GI50 was 61.5 µM (inactive).

**Q.** And the GI50 [5]?
**A.** Its GI50 is 34.8 µM (inactive).

**Q.** What about the GI50 [6] of the same compound?
**A.** Its GI50 is 3.18 µM (inactive).

**Q.** What about the GI50 [7] of the same compound?
**A.** The GI50 was 7.11 µM (inactive).

**Q.** What about the GI50 [8] of the same compound?
**A.** The GI50 was 28.9 µM (inactive).

**Q.** And the GI50 [9]?
**A.** Its GI50 is 5.78 µM (inactive).

**Q.** What about the GI50 [10] of the same compound?
**A.** The GI50 was 31.2 µM (inactive).

**Q.** What about the GI50 [11] of the same compound?
**A.** The GI50 was > 79.6 µM (inactive).

**Q.** And the GI50 [12]?
**A.** The GI50 was > 100 µM (inactive).

**Q.** What about the GI50 [13] of the same compound?
**A.** Its GI50 is 19.3 µM (inactive).

**Q.** What about the GI50 [14] of the same compound?
**A.** Its GI50 is 13.8 µM.

**Q.** What about the GI50 [15] of the same compound?
**A.** Its GI50 is 4.1 µM (inactive).

**Q.** What about the GI50 [16] of the same compound?
**A.** Its GI50 is > 87.1 µM (inactive).

**Q.** What about the GI50 [17] of the same compound?
**A.** Its GI50 is 55.7 µM (inactive).

**Q.** And the GI50 [18]?
**A.** Its GI50 is 26.7 µM (inactive).

**Q.** What about the GI50 [19] of the same compound?
**A.** The GI50 was 24.4 µM (inactive).

**Q.** What about the GI50 [20] of the same compound?
**A.** The GI50 was 69.7 µM (inactive).

**Q.** And the GI50 [21]?
**A.** The GI50 was 9.14 µM (inactive).

**Q.** What about the GI50 [22] of the same compound?
**A.** The GI50 was 43.7 µM (inactive).

**Q.** And the GI50 [23]?
**A.** The GI50 was 34.8 µM (inactive).

**Q.** What about the GI50 [24] of the same compound?
**A.** Its GI50 is 33.1 µM (inactive).

**Q.** And the GI50 [25]?
**A.** Its GI50 is 21 µM (inactive).

**Q.** And the GI50 [26]?
**A.** Its GI50 is 24.3 µM (inactive).

**Q.** And the GI50 [27]?
**A.** The GI50 was 44.8 µM (inactive).

**Q.** And the GI50 [28]?
**A.** The GI50 was 10.9 µM (inactive).

**Q.** What about the GI50 [29] of the same compound?
**A.** The GI50 was 24 µM (inactive).

**Q.** And the GI50 [30]?
**A.** Its GI50 is > 100 µM (inactive).

**Q.** And the GI50 [31]?
**A.** Its GI50 is 31.6 µM (inactive).

**Q.** And the GI50 [32]?
**A.** Its GI50 is 35.4 µM (inactive).

**Q.** And the GI50 [33]?
**A.** Its GI50 is 3.68 µM (inactive).

**Q.** What about the GI50 [34] of the same compound?
**A.** Its GI50 is 19.3 µM (inactive).

**Q.** And the GI50 [35]?
**A.** Its GI50 is 40.5 µM (inactive).

**Q.** What about the GI50 [36] of the same compound?
**A.** Its GI50 is > 100 µM (inactive).

**Q.** And the GI50 [37]?
**A.** Its GI50 is 33 µM (inactive).

**Q.** And the GI50 [38]?
**A.** Its GI50 is 6.31 µM (inactive).

**Q.** What about the GI50 [39] of the same compound?
**A.** The GI50 was 38.8 µM (inactive).

**Q.** And the GI50 [40]?
**A.** The GI50 was 45.2 µM (inactive).

**Q.** And the GI50 [41]?
**A.** The GI50 was 40.9 µM (inactive).

**Q.** And the GI50 [42]?
**A.** The GI50 was 38.3 µM (inactive).

**Q.** What about the GI50 [43] of the same compound?
**A.** The GI50 was > 93.8 µM (inactive).

**Q.** And the GI50 [44]?
**A.** The GI50 was 29.1 µM (inactive).

**Q.** And the GI50 [45]?
**A.** The GI50 was 41.2 µM (inactive).

**Q.** And the GI50 [46]?
**A.** Its GI50 is > 100 µM (inactive).

**Q.** What about the GI50 [47] of the same compound?
**A.** Its GI50 is 63.1 µM (inactive).

**Q.** And the GI50 [48]?
**A.** The GI50 was > 50.5 µM (inactive).

**Q.** And the GI50 [49]?
**A.** Its GI50 is 36.5 µM (inactive).

**Q.** And the GI50 [50]?
**A.** Its GI50 is 50.7 µM (inactive).

**Q.** What about the GI50 [51] of the same compound?
**A.** Its GI50 is 14.3 µM (inactive).

**Q.** What about the GI50 [52] of the same compound?
**A.** The GI50 was 4.5 µM (inactive).

**Q.** What about the GI50 [53] of the same compound?
**A.** Its GI50 is > 100 µM (inactive).

**Q.** What about the GI50 [54] of the same compound?
**A.** The GI50 was 30.7 µM (inactive).

**Q.** What about the GI50 [55] of the same compound?
**A.** Its GI50 is > 81.7 µM (inactive).

**Q.** And the GI50 [56]?
**A.** Its GI50 is 31.6 µM (inactive).

**Q.** What about the GI50 [57] of the same compound?
**A.** Its GI50 is > 100 µM (inactive).

**Q.** What about the GI50 [58] of the same compound?
**A.** The GI50 was 29.7 µM (inactive).

**Q.** Which results are given for O=C(O)[C@@H]1OCCOCCO[C@@H](C(=O)O)[C@H](C(=O)O)OCCOCCO[C@H]1C(=O)O?
**A.** GI50 [1]: > 100 µM (inactive); GI50 [2]: > 100 µM (inactive); GI50 [3]: > 100 µM (inactive); GI50 [4]: > 61.8 µM (inactive); GI50 [5]: > 100 µM (inactive); GI50 [6]: > 51.2 µM (inactive); GI50 [7]: > 61.7 µM (inactive); GI50 [8]: > 42.1 µM (inactive); GI50 [9]: > 50.8 µM (inactive); GI50 [10]: > 100 µM (inactive); GI50 [11]: > 100 µM (inactive); GI50 [12]: > 100 µM (inactive); GI50 [13]: > 67.8 µM (inactive); GI50 [14]: > 55.8 µM; GI50 [15]: 14.3 µM (inactive); GI50 [16]: > 100 µM (inactive); GI50 [17]: > 100 µM (inactive); GI50 [18]: > 100 µM (inactive); GI50 [19]: > 100 µM (inactive); GI50 [20]: > 100 µM (inactive); GI50 [21]: > 72.3 µM (inactive); GI50 [22]: > 100 µM (inactive); GI50 [23]: > 100 µM (inactive); GI50 [24]: > 71.3 µM (inactive); GI50 [25]: > 100 µM (inactive); GI50 [26]: > 100 µM (inactive); GI50 [27]: > 100 µM (inactive); GI50 [28]: > 64.3 µM (inactive); GI50 [29]: > 100 µM (inactive); GI50 [30]: > 100 µM (inactive); GI50 [31]: > 100 µM (inactive); GI50 [32]: > 64.4 µM (inactive); GI50 [33]: > 100 µM (inactive); GI50 [34]: > 100 µM (inactive); GI50 [35]: > 100 µM (inactive); GI50 [36]: > 100 µM (inactive); GI50 [37]: > 100 µM (inactive); GI50 [38]: > 38.4 µM (inactive); GI50 [40]: > 100 µM (inactive); GI50 [41]: > 100 µM (inactive); GI50 [42]: > 100 µM (inactive); GI50 [43]: > 100 µM (inactive); GI50 [44]: > 100 µM (inactive); GI50 [45]: > 100 µM (inactive); GI50 [46]: > 100 µM (inactive); GI50 [47]: > 100 µM (inactive); GI50 [48]: > 100 µM (inactive); GI50 [49]: 97.9 µM (inactive); GI50 [50]: > 100 µM (inactive); GI50 [51]: 19.1 µM (inactive); GI50 [52]: > 50.1 µM (inactive); GI50 [53]: > 100 µM (inactive); GI50 [54]: > 42.1 µM (inactive); GI50 [55]: > 100 µM (inactive); GI50 [56]: > 100 µM (inactive); GI50 [57]: > 100 µM (inactive); GI50 [58]: > 30.3 µM (inactive)
